This is an account of results in patent US20180290961A1, “METHOD AND SYSTEM FOR OBTAINING A CARBOXYLIC ACID WHICH IS PRODUCED IN A FERMENTATION PROCESS” (THYSSENKRUPP INDUSTRIAL SOLUTIONS AG, priority 2015, published 2018).

Molecules are shown by their SMILES. Some results are limits rather than exact numbers.

The nature of one data set: precipitation of fermentatively prepared carboxylic acid after acidification. It counts as physicochemical.
Details: not given
The source says:
The invention is based on the observation that sparingly soluble carboxylic acids such as fumaric acid and adipic acid cannot be worked up satisfactorily using the known purification methods. […] In order to compensate for the resulting loss of product, alternative purification methods are necessary.
In the case of `O=C(O)/C=C/C(=O)O` [fumaric acid], the “concentration above which the acid precipitates after acidification” value was “about 5 g/l”.

Another data set in a line: physchem. The conditions noted are these: 20 °C, water.
As to `O=C(O)/C=C/C(=O)O` [fumaric acid], the solubility (usually the dissolved amount per volume that the medium holds) is no more than 15 mg/mL.

Molecule `N[C@@H](Cc1c[nH]cn1)C(=O)O` [histidine] showed a solubility of no more than 50 mg/mL.

Molecule `CC[C@H](C)[C@H](N)C(=O)O` [isoleucine] registered a solubility of no more than 50 mg/mL.

`CC(C)C[C@H](N)C(=O)O` [leucine] yielded a solubility of no more than 50 mg/mL.

`CSCC[C@H](N)C(=O)O` [methionine] gave a solubility of no more than 50 mg/mL.

The molecule `N[C@@H](Cc1ccccc1)C(=O)O` [phenylalanine] came in with a solubility of no more than 50 mg/mL.

For the molecule `O=C(O)c1ccccc1O` [salicylic acid], the solubility was no more than 15 mg/mL.
